# Values of other authors in patent US9375463B2, “Compositions and methods for improving sleep using a nutraceutical formulation” (Creative Medical Health Inc., priority 2013, dated 2016).
# Assays:
# elderly subjects = conditions: 500 mg daily for 8 weeks, 46 elderly subjects
# subjects = conditions: oral, 4 weeks, 9 subjects; by increasing sensitivity to light
# infants = conditions: daily for 12 months
# [1] = 3 mg
# [2] = test system: healthy males with normal sleep patterns; conditions: 0.3 or 1.0 mg, orally
# [3] = test system: children most of whom were neurologically disabled; conditions: 2-5 mg before bedtime for 7-10 days, fifteen subjects
compound,measurement,setting,value
[Mg+2] [magnesium],levels of serum cortisol,elderly subjects,reduced the levels of serum cortisol
same,subjective measures of sleep,elderly subjects,improved subjective measures of sleep
vitamin B12,circadian rhythm,subjects,advanced the circadian rhythm
zinc [zinc supplements],night sleep duration,infants,increased night sleep duration
same,night waking,infants,less night waking
N-acetyl-5-hydroxytryptamine [melatonin],"subjective sleep experiences (time to fall asleep, quality of sleep, awakenings)",[1],subjective improvements in sleep experiences
same,falling asleep faster than individuals given placebo (sleep onset latency),[2],approximately 40 minutes
same,sleep and moods,[3],improve sleep and moods
